From US11191773B2, “Methods of treatment for bacterial infections” (President and Fellows of Harvard College, priority 2017, dated 2021) come the findings set out here.

The test system of one assay is Escherichia coli. Kind of assay: Minimal inhibitory concentrations, checkerboard microdilution. The assay is classed as cell-based. The following applies: grown at 37° C. for 24 h. As for the experimental part:
(§1) Checkerboard microdilution assays between polymyxin B and novobiocin were performed in wild-type strains (unless otherwise noted) grown at 37° C. for 24 h. Checkerboard data (FIG. 1A-1F) are representative of at least three biological replicates. The following strains were tested: A) Wild-type Escherichia coli, ATCC 25922; B) Wild-type Enterobacter cloacae; ATCC 13047) Wild-type Klebsiella pneumoniae, ATCC 700721; D) Wild-type Pseudomonas aeruginosa, ATCC 15692 (PAO1); E) Wild-type Acinetobacter baumannii, ATCC 19606; F) novobiocin-resistant Acinetobacter baumannii, ATCC 19606 gyrB(R150C).

Assay [1] relates to Acinetobacter baumannii Novo^R. The assay is described as above. Format: cell-based. The following applies: grown at 37° C. for 24 h. As to the method:
as §1

The next assay relates to Pseudomonas aeruginosa. The assay is described as above. The following applies: grown at 37° C. for 24 h. The assay is classed as cell-based. As to the method: as §1
A further assay has as its system Klebsiella pneumoniae. The assay is described as above. Format: cell-based. The note with it: grown at 37° C. for 24 h. As to the method: as §1
Assay [2] has as its system E. coli strain ATCC 25922. Nature of the assay: Neutropenic mouse thigh infection efficacy. Format: in vivo. The note with it: for Average log10 CFU/g of thigh: neutropenic CD-1 mice, 26 hours post infection. As to the method: Female CD-1 mice from Charles River Laboratories were allowed to acclimate for 5 days prior to start of study. Animals were housed four per cage with free access to food and water. Mice received two doses of cyclophosphamide on days −4 and −1 with 150 mg/kg and 100 mg/kg delivered IP, respectively. All procedures were performed to NeoSome IACUC policies and guidelines as well as OLAW standards.
E. coli strain ATCC 25922 was prepared for infection from an overnight plate culture. A portion of the plate was resuspended in sterile saline and adjusted to an OD of 0.15 at 625 nm. The adjusted bacterial suspension was further diluted to target an infecting inoculum of 1.5×10^5 CFU/mouse, the actual inoculum size for E. coli was 1.45×10^5 CFU/mouse. Plate counts of the inoculum was performed to confirm inoculum concentration.
Mice were inoculated with 100 μL of the prepared bacterial suspension via intramuscular injection into the right rear thigh.
Beginning at two hours post infection, mice were dosed with test agents subcutaneously at 10 mL/kg. A second dose of test agents was delivered at 6 hours post infection. For co-administered therapy, test agents were delivered separately at two different injection sites. Four animals were dosed per group. One group of four mice were euthanized at initiation of therapy (T=2 h) and CFUs determined. All remaining mice were euthanized at 26 hours post infection. At termination, thighs were aseptically excised, weighed, and homogenized to a uniform consistency in 2 mL of sterile saline. The homogenate was serially diluted and plated on bacterial growth media. The CFUs were enumerated after overnight incubation. The average and standard deviations for each group were determined.
Neutropenic mice infected with E. coli were treated with novobiocin, polymyxin B, or a combination of the two for the evaluation of efficacy is a thigh infection model.

A further assay deals with wild-type E. coli. Nature of the assay: Checkerboard microdilution assay between PMB and clorobiocin / novobiocin (FIG. 9F). Format: cell-based. The following applies: 37° C. for 24 h.
For assay [3], the target named is T1, wild-type LptB2FGC complexes (Escherichia coli, UniProt P0A9V1).
T1 construct: made in house; host or cells: right-side-out membrane vesicles from E. coli BL-21(λDE3) overexpressing the complex
T1 sequence (P0AF98 whole entry): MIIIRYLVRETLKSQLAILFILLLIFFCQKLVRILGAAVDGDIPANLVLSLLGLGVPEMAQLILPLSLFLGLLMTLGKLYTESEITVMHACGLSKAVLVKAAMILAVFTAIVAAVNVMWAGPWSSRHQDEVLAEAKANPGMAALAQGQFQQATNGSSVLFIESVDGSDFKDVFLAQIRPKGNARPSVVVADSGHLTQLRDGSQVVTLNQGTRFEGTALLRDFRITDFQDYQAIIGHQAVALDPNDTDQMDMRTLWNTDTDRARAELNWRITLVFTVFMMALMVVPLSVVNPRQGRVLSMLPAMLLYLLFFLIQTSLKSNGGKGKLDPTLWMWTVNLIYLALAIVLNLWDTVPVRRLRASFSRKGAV
T1 sequence (P0ADV9 whole entry, further chain): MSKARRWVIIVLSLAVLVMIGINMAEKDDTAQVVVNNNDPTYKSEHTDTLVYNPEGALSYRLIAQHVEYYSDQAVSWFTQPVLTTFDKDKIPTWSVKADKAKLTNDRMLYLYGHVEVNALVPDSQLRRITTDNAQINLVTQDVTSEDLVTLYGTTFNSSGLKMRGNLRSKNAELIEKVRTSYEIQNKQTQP
T1 sequence (P0ADC6 whole entry, further chain): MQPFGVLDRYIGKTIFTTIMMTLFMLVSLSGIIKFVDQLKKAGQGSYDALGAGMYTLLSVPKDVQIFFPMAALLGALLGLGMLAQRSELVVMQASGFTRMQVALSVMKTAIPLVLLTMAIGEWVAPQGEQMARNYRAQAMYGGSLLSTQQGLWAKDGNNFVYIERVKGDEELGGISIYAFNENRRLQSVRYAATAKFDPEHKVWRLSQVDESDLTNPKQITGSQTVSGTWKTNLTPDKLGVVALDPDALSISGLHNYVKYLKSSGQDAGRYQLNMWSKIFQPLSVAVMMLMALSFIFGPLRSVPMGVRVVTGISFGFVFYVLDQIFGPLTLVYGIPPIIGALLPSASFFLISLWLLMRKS
T1 sequence (P0A9V1 2-241): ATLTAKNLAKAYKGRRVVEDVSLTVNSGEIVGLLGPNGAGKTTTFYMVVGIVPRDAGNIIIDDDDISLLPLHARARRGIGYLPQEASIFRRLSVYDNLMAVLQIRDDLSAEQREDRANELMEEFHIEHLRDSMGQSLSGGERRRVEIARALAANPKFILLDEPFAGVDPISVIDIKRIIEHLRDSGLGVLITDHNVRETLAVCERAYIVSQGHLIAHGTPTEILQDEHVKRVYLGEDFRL
Nature of the assay: LPS-release assay, right-side-out vesicles to LptA*. The assay is classed as biochemical, E. coli. The following applies: overexpressed LptB2FGC vesicles, 30° C. for 1 hour (FIG. 9D, 9E). As for the experimental part:
(§2) FIG. 9A is a schematic drawing showing the assay to monitor LPS release from right-side-out vesicles to LptA* (LptA(I36pBPA)). Vesicles containing overexpressed wild-type or mutant LptB2FGC complexes were incubated with LptA* and ATP at 30° C. to initiate LPS extraction and transport from the vesicles to LptA*. Samples were taken at different time points and UV-irradiated to crosslink LPS to LptA*, and accumulation of LPS-LptA* adducts was detected using LPS immunoblots.
FIG. 9D is a picture of an immunoblot showing that novobiocin and derivatives with impaired gyrase activities stimulate LPS transport in E. coli in vitro. […] Samples were UV irradiated at 365 nm for 5 minutes and then quenched with 2X SDS/5% β-mercaptoethanol. Samples were immunoblotted.
(§3) The assay detects via immunoblot LPS that becomes crosslinked to LptA* in the presence of UV light. […] By comparison, vesicles containing LptB2LptFG(ch)C complexes released less LPS over time (FIG. 9B, lanes 5-8). These experiments provide direct evidence that the amino acid changes in LptFG(ch), which were known to affect complex formation with LptB, impair LPS release. […] These compounds also increase LPS release from vesicles containing wild-type LptB2FGC complexes or LptB(R91 S)2FGC complexes (FIG. 17).
Samples were UV irradiated at 365 nm for 5 minutes and then quenched with 2X SDS/5% β-mercaptoethanol. Samples were immunoblotted.
The in vitro LPS-transport experiments in FIGS. 9B, 9C, and 17 were set-up as described in (Okuda et al. Science 2012, 338, 1214-1217) with some modifications. RSO-vesicles (50 μg total protein) were diluted into 100 μL reaction buffer (10% v/v glycerol, 20 mM Tris (pH 8.0), 150 mM NaCl, 5 mM sodium-ATP, 5 mM MgCl2), and incubated on ice with novobiocin, 1-adamantyl-novobiocin, or no compound for 15 minutes (50× compound stocks in water were used for each concentration). […]
(§4) Immunoblotting was used to assess LptA*-LPS levels in each sample. […] LptA levels were assessed similarly, using rabbit anti-LptA antiserum followed by donkey anti-rabbit horseradish peroxidase conjugate (GE Amersham). […]

For the next assay, the system named is wild type. Nature of the assay: Minimum inhibitory concentration assay. Format: cell-based, E. coli. The following applies: Escherichia coli, 15 h, read-out: Minimum inhibitory concentration. As to the method:
(§5) We wondered whether it would be possible to separate novobiocin's ability to suppress the IptFG(ch) defects in vivo from its activity against DNA gyrase, its presumed primary target. […] Minimum inhibitory concentrations were measured after a 15-hr incubation period at 37° C.
(§6) Overnight cultures were prepared by transferring 5 mL of sterile LB Miller media to culture tubes and inoculating with the corresponding organism. The tubes were allowed to shake at 220 rpm, 37° C. overnight. 15 μL of overnight culture was diluted in 15 mL of LB Miller in a Falcon tube and was vortexed to mix. In a 96-well plate, 100 μL of diluted culture was added to each well. To column #1, an additional 100 μL of diluted culture and test compound was added (93.7 μL culture+6.35 μL 10 mg/mL novobiocin) or (94.2 μL culture+5.87 μL 10 mg/mL 1-adamantyl-novobiocin) such that the highest concentration tested was 500 μM. Transferred 100 μL from column #1 into column #2, etc, and mixed each time thoroughly. Repeated serial dilution until column #11. Incubated the plate at 37° C. overnight (˜16 h) and read the turbidity (OD600) using a Spectramax 384 plus plate reader (Molecular Devices).

In a further assay the test system is lptB1. Nature of the assay: Minimum inhibitory concentration assay. The assay is classed as cell-based, E. coli. As for the experimental part: as §5, §6
For a further assay, the system named is ΔtolC. Nature of the assay: Minimum inhibitory concentration assay. Format: cell-based, E. coli. As to the method: as §5, §6
The subject of a further assay is IptFG(ch) mutant. Kind of assay: Rescue of growth of coupling helix mutant (plating and disk assays). The assay is classed as cell-based, E. coli. As for the experimental part:
FIG. 8B is a series of pictures of bacterial overnight cultures grown in minimal medium. The cultures were serially diluted ten-fold and spotted onto LB agar plates with and without compounds.
FIG. 15 is a picture of bacterial lawns grown on plates in the presence of disks containing antibiotics. […] Strains were grown overnight in minimal media and then plated on LB plates. Each disk contained 5 μg compound.
The coupling helices in LptFG each contain a strictly-conserved glutamate, and changing both glutamates to alanine (IptFG(ch)) causes a lethal loss of function (FIG. 8B, LB panel). […] Because novobiocin also contacts R91 (FIG. 7C), we speculated that it might rescue growth of IptFG(ch) by masking the charge. […] We conclude that novobiocin suppresses Lpt defects in vivo by interacting with LptB at R91; therefore, novobiocin interacts with LptB in cells in a similar manner to that observed in the crystal structure.
Disk diffusion assays were performed as described in Sherman et al., Proc. Natl. Acad. Sci. USA 2014, 111, 4982-4987. Premade Sensi-Disc (BD-Beckton, Dickinson and Company) were used for bacitracin 10IU, erythromycin 15 μg, novobiocin 30 μg, and rifampin 5 μg.
(§7) Efficiency of plating assays were performed on indicated media using the method described in Butler et al., J. Bacteriol. 2013, 195, 4639-4649.

A further assay has as its system wild type and IptB1. Nature of the assay: Plating assay (FIG. 14). The assay is classed as cell-based, E. coli. As for the experimental part:
as §7

Assay [4] has as its target T2, LptB2LptFG(ch)C complexes (Escherichia coli, UniProt P0A9V1).
T2 construct: made in house; host or cells: right-side-out membrane vesicles from E. coli BL-21(λDE3) overexpressing the complex
Kind of assay: LPS-release assay, right-side-out vesicles to LptA*. The assay is classed as biochemical, E. coli. The note with it: 30° C. (FIG. 9C). As for the experimental part:
as §2, §3
The in vitro LPS-transport experiments in FIGS. 9B, 9C, and 17 were set-up as described in (Okuda et al. Science 2012, 338, 1214-1217) with some modifications. […]
as §4

The mark [5] stands for this setting: PMB 0.03 mg/kg (total 0.06) BID/SC.
The mark [6] stands for this setting: PMB 0.1 mg/kg (total 0.2) BID/SC.
[7] abbreviates: PMB 0.3 mg/kg (total 0.6) BID/SC.
[8] abbreviates: Escherichia coli, 15 h, read-out: Minimum inhibitory concentration.

≈ marks a conversion by molar mass, not a printed value. Where only a bound is given, the exact number is not on record here.

T2 sequence (P0AF98 whole entry E84A): as the sequence (P0AF98 whole entry) above, with E84A counted along it
T2 sequence (P0ADC6 whole entry E88A, further chain): as the sequence (P0ADC6 whole entry, further chain) above, with E88A counted along it
T2 sequence (P0A9V1 2-241): as the sequence (P0A9V1 2-241) above
T2 sequence (P0ADV9 whole entry, further chain): as the sequence (P0ADV9 whole entry, further chain) above

For the molecule polymyxin B, the MIC in the assay on Escherichia coli is 0.11 µg/mL; in [1], 0.28 µg/mL; in the assay on Pseudomonas aeruginosa it was greater than 1 µg/mL; with Klebsiella pneumoniae, 1 µg/mL. Also, the “change in log10 CFU/g of thigh from 2 hour control” value in assay [2] (setting [5]) is 3.91 log10 CFU/g of thigh; in assay [2] (setting [6]), 3.95 log10 CFU/g of thigh; in [2] (setting [7]), 3.38 log10 CFU/g of thigh; in [2] (PMB 1 mg/kg (total 2) BID/SC), 0.49 log10 CFU/g of thigh. In addition, the “change in log10 CFU/g of thigh from 26 hour controls” value in [2] (setting [5]) is listed as −0.18 log10 CFU/g of thigh; in [2] (setting [6]), −0.13 log10 CFU/g of thigh; in assay [2] (setting [7]), −0.70 log10 CFU/g of thigh; in assay [2] (PMB 1 mg/kg (total 2) BID/SC) it was −3.60 log10 CFU/g of thigh. For the same molecule, the “reductions in CFUs from the 26 hour infection controls” value in assay [2] (Polymyxin B as a single agent at 0.2 mg/kg) was 0.70 log10 CFU/gram of thigh; in assay [2] (Polymyxin B as a single agent at 1 mg/kg) it was 3.60 log10 CFU/gram of thigh. Besides, the “Average log10 CFU/g of thigh” value in assay [2] (setting [5]) is listed as 9.44 log10 CFU/g of thigh; in [2] (setting [6]) it was 9.49 log10 CFU/g of thigh; in assay [2] (setting [7]) it was 8.92 log10 CFU/g of thigh; in assay [2] (PMB 1 mg/kg (total 2) BID/SC), 6.02 log10 CFU/g of thigh.
For the molecule `CO[C@@H]1[C@@H](OC(=O)c2ccc(C)[nH]2)[C@@H](O)[C@H](Oc2ccc3c(O)c(NC(=O)c4ccc(O)c(CC=C(C)C)c4)c(=O)oc3c2Cl)OC1(C)C` [clorobiocin], the “synergy with PMB” value in the assay on wild-type E. coli is recorded as “more potent synergy with PMB than novobiocin”. Moreover, the “LPS transport in vitro” value in [3] is “highly stimulates LPS transport in vitro”.
Take `COC1C(OC(N)=O)C(O)[C@H](Oc2ccc3c(O)c(NC(=O)C45CC6CC(CC(C6)C4)C5)c(=O)oc3c2C)OC1(C)C` (stereo partly drawn) [Novobiocin-adamantyl, (3R,4S,5R,6R)-6-((3-((3R,5S)-adamantane-1-carboxamido)-4-hydroxy-8-methyl-2-oxo-2H-chromen-7-yl)oxy)-5-hydroxy-3-methoxy-2,2-dimethyltetrahydro-2H-pyran-4-yl carbamate]: the MIC was greater than 500 µM in the assay with wild type, 125 µM (≈ 73.3 µg/mL) in the assay with lptB1 (setting [8]) and 125 to 250 µM (≈ 73.3 to 147 µg/mL) in the assay on ΔtolC (setting [8]). In addition, the “less potent in vivo compared to novobiocin” value in the assay with lptB1 (leaky IptB1 strain) and with ΔtolC (efflux pump-deficient ΔtoIC strain) was roughly 100 × in each case. Besides, the “suppression of lethality of IptFG(ch)” value with IptFG(ch) mutant (disks on LB plates, each disk 5 μg compound (FIG. 15)) is given as “suppressed the lethality of IptFG(ch)”. For the same molecule, in the assay on IptFG(ch) mutant (serial dilutions spotted onto LB agar plates with compound (FIG. 8B)), the “rescue of growth of IptFG(ch)” value was “completely suppressed the lethality of IptFG(ch)”. For the same molecule, the “potency compared to novobiocin” value with wild type and IptB1 is reported as “less potent than novobiocin”. For the same molecule, the “LPS release from vesicles to LptA*” value in assay [4] is recorded as “stimulate LPS release from the LptB2LptFG(ch)C vesicles in a concentration dependent manner”.
